Results published in patent US20070009965A1, “Novel method for screening for GPCR agonists and/or antagonists from herbs” (Advanced Gene Technology, Corp., priority 2004, published 2007).

Target: MC5R (Homo sapiens, UniProt P33032)
Test: herbal chip hybridization with MC5R and Cy3-anti-MC5R, fluorescence imaging
Type: binding
Details: at least 25 ng/ml NDP-MSH spotted on coated slide; at least 25 μg/ml MC5R; at least 5 μg/ml Cy3-anti-MC5R; laser scanner
Experimental: A coated plastic slide (1) having active epoxy groups on its surface was prepared in accordance with the method disclosed in the Paragraph entitled “Pretreatment of the Plastic Slide and Preparation of the Coated Plastic Slide” under the Example section of U.S. Pat. No. 6,645,719 B2.
In a dark room, under room temperature, at least 25 μg/ml of MC3R, MC4R and MC5R were individually added to the slides (2), and the resultant slides (3) were allowed to stand for 1 hour for completing hybridization. The slides (3) were washed with 1× TBST buffer (50 mM Tris, pH 7.3, 0.15 M NaCl and 0.02% Tween 20) and Milli-Q water, and then dried in an incubator at 37° C.
Also in the dark room, under room temperature, at least 5 μg/ml of Cy3-anti-MC3R, Cy3-anti-MC4R and Cy3-anti-MC5R were respectively added to the slides (3), each containing said bound MC3R, MC4R or MC5R. The resultant slides (4) were allowed to stand for 1 hour for completing the specific MCXR-anti-MCXR binding, and were then washed with 1× TBST buffer (50 mM Tris, pH 7.3, 0.15 M NaCl and 0.02% Tween 20) and Milli-Q water, and dried in an incubator at 37° C.

MC5R, sequence (P33032 whole entry, species assumed): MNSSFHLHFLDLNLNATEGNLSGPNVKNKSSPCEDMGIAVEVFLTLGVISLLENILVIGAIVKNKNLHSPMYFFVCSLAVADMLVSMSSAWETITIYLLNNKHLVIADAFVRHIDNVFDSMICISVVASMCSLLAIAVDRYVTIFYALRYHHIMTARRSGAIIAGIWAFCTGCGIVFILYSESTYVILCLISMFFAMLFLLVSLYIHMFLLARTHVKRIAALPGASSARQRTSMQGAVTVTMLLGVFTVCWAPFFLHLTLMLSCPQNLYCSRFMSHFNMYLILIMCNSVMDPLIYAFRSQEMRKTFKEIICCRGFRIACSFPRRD

With “NH2-Ser-Thr-Ser-Nle-Glu-His-D-Phe-Arg-Trp-Gly-Lys-Pro-Val-OH [NDP-MSH]” the “Mean of Fluorescence Intensity (M)” value was 722.50.
